Data published in patent EP4722365A1, “DOUBLE-STRANDED NUCLEOTIDE COMPOUND FOR METABOLIC DISEASES AND USE THEREOF” (Visirna Therapeutics (Suzhou) Co., Ltd., priority 2023, dated 2024).

Assays:
Assay type in all cases: in vivo
hDGAT2 = assay: Mouse model receiving hydrodynamic injection of DGAT2 plasmid via tail vein (Example 5, liver mRNA qPCR); conditions: for Average inhibition rate, % Day 1 after HDI (day 5 after administration): 3mpk subcutaneously day 0, HDI day 4, BALB/c mice; for Average inhibition rate, % Day 1 after HDI (day 15 after administration): 3mpk subcutaneously day 0, HDI day 14, BALB/c mice
Method: BALB/c mice, female, 6-7 weeks old.
pcDNA-DGAT2 plasmid, having a concentration of 2 µg/µL, diluted with physiological saline for later use.
The hydrodynamic injection scheme of DGAT2 plasmid DNA via tail vein, the administration and the sample collection method were as follows.
Treatment with compound: The day of administration to mice was defined as day 0, the day before it was day -1, the day after it was day 1, and so on. On day 0, the mice were injected subcutaneously with 5 mL/kg of the solvent or the test compound, at a dosage of 3mpk.
(§1) Hydrodynamic injection of DGAT2 plasmid DNA solution into mice via tail vein: On day 4 or 14, the plasmid DNA was prepared with normal saline before injection, and stored at 4°C until use. All mice were injected with the plasmid DNA solution in a volume of 8% of the body weight (injection volume (mL)= body weight of mice (g) x 8%) in 5 seconds via the tail vein, and the weight of plasmid injected into each mouse was 10 µg.
Endpoint of the experiment and collection of liver samples: On day 5 or 15, that is, 24 hrs after the hydrodynamic injection of DGAT2 plasmid via the tail vein, all mice were euthanized by CO2 inhalation. After euthanasia, blood samples were collected from the heart and liver samples were collected. 2 liver tissues of about 70 mg were immersed in RNAlater®, and incubated overnight at 4 °C. The supernatant was discarded and the remainder was transferred to a freezer at -80°C, for mRNA detection later.
RNA in the liver was extracted with Trizol. The method was briefly described as follows: 50-70 mg of liver tissue and 1.2 mL of Trizol were homogenized with Qiagen Tissue Lyser II at 26 Hz for 2 min and lyzed at room temperature for 5 min. 1 mL of the supernatant was taken, added to 200 uL of chloroform, vigorously shaken for 15 s, allowed to stand for 3 min, and centrifuged. The supernatant was collected, added with an equal volume of isopropanol, and stood overnight at -20°C for precipitation. The precipitate was washed twice with 70% , and dissolved in water without RNase. The concentration of the RNA sample was determined by Nanodrop ONE and diluted to 400 ng/uL with water without RNase for reverse transcription.
The experimental steps of reverse transcription could be made reference to the instruction of FastKing cDNA first strand synthesis kit (genome clean). Briefly, a gDNA removal mixture was prepared according to Table 6. The mixture (5 µL/sample) and 400 ng/µL RNA sample were added to a 96-well PCR reaction plate, incubated at 42°C for 3 min, and cooled on ice. A mixture for reverse transcription was prepared according to Table 7. The reverse transcription mixture (10 µL/sample) and the DNA removal product of the previous step were added to a 96-well PCR reaction plate, for reverse transcription. Reaction conditions: 42°C for 15 min; and 95°C for 3 min. The cDNA was stored at 4°C for further analysis. Table 6. Ingredients for gDNA-removal reaction
Reaction conditions: 95°C for 10 min; and 40 cycles of 95°C for 15 s, and 60°C for 1 min. Table 8. Ingredients for qPCR Reaction (DGAT2)
(§2) The expression of the target gene in each sample was analyzed by relative quantification using ΔΔCt method. In this method, the Ct difference (ΔCt) between the target gene (DGAT2) and the internal reference gene (Neo) was determined, and the ΔCt value of the sample treated with the compound was compared with that of the control group.
The formula is: ΔCt = average Ct value of target gene−average Ct value of reference gene. [formula] [formula]
Data analysis: The data are expressed as the average of each group of mouse samples ± standard error. Unless otherwise specified, n=4 or 5. Student's t test was used for statistical analysis. Table 10.1 Test for evaluating the in-vivo inhibitory activity of siRNA compounds on target gene DGAT2 in mice model receiving hDGAT2 HDI 5 days after administration

human DGAT2 [1] = assay: Mice receiving hydrodynamic injection of human DGAT2 plasmid via the tail vein (Example 7); conditions: 3 mg/kg subcutaneous single dose day 0; BALB/c mice, liver DGAT2 mRNA
Method: (§3) Animals: BALB/c mice, female, 6-7 weeks old.
(§4) DGAT2 plasmid DNA: pcDNA-DGAT2 plasmid, having a concentration of 2 µg/µL, diluted with physiological saline for later use.
The in-vivo experimental designs for the hydrodynamic injection of DGAT2 plasmid DNA via the tail vein, the administration, and the sample collection method were shown in the table below.
Treatment with compound: The day of administration to mice was defined as day 0, the day before it was day -1, the day after it was day 1, and so on. On day 0, the mice were injected subcutaneously with 5 mL/kg of the solvent or the test compound.
as §1, with “day” for “day 4 or”, “µg. […]” for “µg.”
(§5) RNA in the liver was extracted with Trizol. The concentration of the RNA sample was determined by Nanodrop ONE (ultra-micro ultraviolet-visible spectrophotometer) and diluted to 400 ng/uL with water without RNase for reverse transcription. Quantitative PCR detection of DGAT2 and NEO gene expressions in mouse liver: […]

human DGAT2 [2] = assay: Mice receiving hydrodynamic injection of human DGAT2 plasmid via the tail vein (Example 8); conditions: 3 mg/kg subcutaneous single dose day 0; BALB/c mice, liver DGAT2 mRNA
Method: as §3, §4
Experimental method: The in-vivo experimental designs for the hydrodynamic injection of DGAT2 plasmid DNA, the administration and the sample collection method were shown in the table below.
Treatment with compound: The day of administration to mice was defined as day 0, the day before it was day -1, the day after it was day 1, and so on. On day 0, the mice were injected subcutaneously with 5 mL/kg of the solvent or the test compound,
Hydrodynamic injection of DGAT2 plasmid DNA solution into mice via tail vein: On day 14, the plasmid DNA was prepared with normal saline before injection, and stored at 4°C until use. […]
as §5, with “Quantitative PCR detection of DGAT2 gene expression in mouse liver: RNA in” for “RNA in”

DGAT2 = assay: Inhibitory activity on the target gene DGAT2 in mice (Example 6, liver mRNA RT-PCR); conditions: 3 mg/kg SC, day 0, once; C57BL/6 mice, liver mRNA day 7
Text: Animals: Male C57BL/6 mice, 6 weeks old, without particular pathogens. Before the experiment, the animals were allowed to acclimate to the environment for 7 days.
Solvent: phosphate buffer (PBS).
In-vivo experiment: The in-vivo experimental designs for the animal administration and the sample collection method were shown in the table below.
Definition of days of experiment: The day of first administration to mice was defined as day 0, the day before it was day -1, the day after it was day 1, and so on.
All mice were given a single dose of PBS, the control compound or the test compound by SC on day 0. On day 7, blood was taken from the submandibular vein plexus mice, and the plasma was collected. Then the mice were euthanized. Blood was taken from the heart for later use. The liver was collected for analysis of target mRNA level in the liver.
Sample detection and analysis: RT-PCR was used to quantitatively detect the level of target mRNA in liver tissue.
as §2, with “(GAPDH)” for “(Neo)”, “group. […]” for “group.”
Data analysis: The data are expressed as the average of each group of mouse samples ± standard error. […]

## dS301: sense (invAb)*gaagaaguUfCfCfagaaauacau*(invAb)[L96]; anti-sense a*Uf*g*UfaUfuucugGfaAfcUfuCfuUf*c
hDGAT2
  Average inhibition rate, % Day 1 after HDI (day 5 after administration): 91.68%
  Average inhibition rate, % Day 1 after HDI (day 15 after administration): 78.89%
Human DGAT2 [1]
  Average inhibition rate, % (Day 15 after administration): 79%

## dS302: sense (invAb)*acaccauaGfAfCfuauuugcuuu*(invAb)[L96]; anti-sense a* Af*a*GfcAfaauagUfcUfaUfgGfuGf*u
hDGAT2
  Average inhibition rate, % Day 1 after HDI (day 5 after administration): 97.46%
  Average inhibition rate, % Day 1 after HDI (day 15 after administration): 70.35%
Human DGAT2 [2]
  Average inhibition rate, % (Day 15 after administration): 70.4%

## dS303: sense (invAb)*uguacauaUfUfCfugcacugauu*(invAb)[L96]; anti-sense a* Af*u*CfaGfugcagAfaUfaUfgUfaCf*a
hDGAT2
  Average inhibition rate, % Day 1 after HDI (day 5 after administration): 85.53%

## dS304: sense (invAb)*cgcuacuuUfCfGfagacuacuuu*(invAb)[L96]; anti-sense a*Af*a*GfuAfgucucGfaAfaGfuAfgCf*g
hDGAT2
  Average inhibition rate, % Day 1 after HDI (day 5 after administration): 66.33%

## dS305: sense [NAG37](invAb)*uggguuauUfUfAfaaagaaauua*(invAb ); anti-sense u*Af*a*UfuUfcuuuuAfaAfuAfaCfcCf*a
hDGAT2
  Average inhibition rate, % Day 1 after HDI (day 5 after administration): 95.59%

## dS306: sense [NAG37](invAb)*uguggguuAfUfUfuaaaagaaau*(invAb ); anti-sense a*Uf*u*UfcUfuuuaaAfuAfaCfcCfaCf*a
hDGAT2
  Average inhibition rate, % Day 1 after HDI (day 5 after administration): 96.72%

## dS307: sense (invAb)*ggugucugUfGfGfguuauuuaaa*(invAb)*[L96]; anti-sense Vpu*Uf*Uf*AfaauaaccCfaCfaGfacac*c
hDGAT2
  Average inhibition rate, % Day 1 after HDI (day 15 after administration): 61.03%
DGAT2
  Average inhibition rate (%) (7 days): 76%

## dS316: sense (invAb)*gaagaaguUfCfCfagaaauacaa[L96]; anti-sense Vpu*Uf*g*UfaUfuucugGfaAfcUfuCfuUf* c
Human DGAT2 [1]
  Average inhibition rate, % (Day 15 after administration): 66%
